Data reported in article PMC9234671, “Molecular determinants of αVβ5 localization in flat clathrin lattices – role of αVβ5 in cell adhesion and proliferation” (Journal of Cell Science, 2022).

Key:
[1] = system: phosphorylated MLC in PA-JEB/β4 keratinocytes; test: Western blot: cell tension (phosphorylated myosin light chain); assay type: cell-based, human; conditions: nocodazole
Description: Proteins were separated by electrophoresis using a Bolt Novex 4–12% gradient Bis-Tris gels (Invitrogen) or 15% SDS-PAGE gels (made in-house), transferred to Immobilon-P transfer membranes (Millipore Corp) and blocked for at least 30 min in 2% BSA in TBST buffer (10 mM Tris-HCl pH 7.5, 150 mM NaCl and 0.3% Tween-20). Primary antibody (diluted 1:1000 in 2% BSA in TBST buffer) incubation took place overnight at 4°C. After washing twice with TBST and twice with TBS, blots were incubated for 1 h hour at room temperature with horseradish peroxidase-conjugated goat anti-mouse-IgG or goat anti-rabbit-IgG (diluted 1:3000 in 2% BSA in TBST buffer). After subsequent washing steps, the bound antibodies were detected by enhanced chemiluminescence using SuperSignal™ West Dura Extended Duration Substrate (ThermoFisher) or Clarity™ Western ECL Substrate (Bio-Rad) as described by the manufacturer. Signal intensities were quantified using ImageJ.
Fig. S4. (A) Representative western blots of phosphorylated myosin light chain (MLC) and GAPDH in PA-JEB/β4 keratinocytes treated with DMSO versus Nocodazole. […]
μm. Quantifications of β5 or β5 mutants clustering in FAs are shown in (C-E). […] Total cells analyzed per condition: 90 (WT, DMSO), 111 (WT, Noco.) (C), 40 (S>E, DMSO), 80 (S>E, Noco.) (D), 65 (S>A, DMSO), 82 (S>A, Noco.) (E). […]

[2] = system: integrin β5 localization in PA-JEB/β4 keratinocytes; test: Immunofluorescence: integrin β5 clustering in FAs/FCLs, PA-JEB/β4; assay type: cell-based, human
Text: Fig. 3. Serine 759 and 762 are involved in regulating the localization of integrin β5. (A–C) Integrin β5 containing S759/762E or S759/762A mutations (A) were expressed in β5-deficient PA-JEB/β4 keratinocytes and the subcellular distribution of β5 was compared to β5-deficient keratinocytes expressing wild-type (WT) β5. Merged images show integrin β5 (green), vinculin (B) or clathrin (C) (red), actin (blue) and the cell nuclei (cyan). (D,E) Analysis of wild-type versus mutant integrin β5 clustering in FAs or FCLs. (F–I) PA-JEB/β4 keratinocytes were grown in 10% FCS-supplemented DMEM culture medium overnight and then treated with 5 nM calyculin A (Cal.A) or DMSO (vehicle control) for 30 min prior to fixation. Merged images show integrin β5 (green), vinculin (F) or clathrin (H) (red), actin (blue) and the cell nuclei (cyan), quantifications of β5 clustering in FAs or FCLs are shown in G,I. (J,K) Analysis of integrin β5 clustering in FAs or FCLs in PA-JEB keratinocytes after treatment with Cal.A. Representative confocal microscopy images are shown in Fig. S3. Scale bars: 20 μm. Data were obtained from three independent experiments. Total cells analyzed per condition: 109 (WT), 116 (S>E), 103 (S>A) (D), 81 (WT), 77 (S>E), 101 (S>A) (E), 126 and 123 (G), 111 and 101 (I), 106 and 102 (J), 115 and 109 (K). ****P<0.0001 (Mann–Whitney U-test). Box plots range from the 25th to 75th percentile; central line indicates the median; whiskers show smallest to largest value.
PA-JEB/β4 keratinocytes were seeded on glass coverslips and cultured in complete KGM medium for 24 h, and then treated with DMEM plus 10% FCS for 24 h. Other cell lines were seeded on glass coverslips and cultured in DMEM plus 10% FCS. Cells were fixed with 2% paraformaldehyde (PFA) for 10 min, permeabilized with 0.2% Triton X-100 for 5 min, and blocked with PBS containing 2% bovine serum albumin (BSA; Sigma) for at least 30 min. Next, cells were incubated with the primary antibodies for 1 h at room temperature. Cells were washed three times before incubation with the secondary antibodies for 1 h. Additionally, nuclei were stained with DAPI, and filamentous actin was visualized using Alexa Fluor 488 or 647-conjugated phalloidin (Invitrogen). After three washing steps with PBS, the coverslips were mounted onto glass slides in Mowiol. Images were obtained using a Leica TCS SP5 confocal microscope with a 63× (NA 1.4) oil objective.
Image analysis was performed using Fiji (ImageJ) ([Schindelin et al., 2012]; [Schneider et al., 2012]). To quantify integrin clustering in FAs (based on vinculin staining) versus FCLs (clathrin staining), background was subtracted in both channels using a bilateral filter and the region of interest (ROI) was selected at the cell periphery. Colocalization of integrin clusters and FAs or FCLs was determined using the Image Calculator (command ‘multiply’) on both channels and calculating the area of overlapping clusters as a percentage of the total integrin cluster area per cell using the Analyze Particle function.

## COC(=O)Nc1nc2ccc(C(=O)c3cccs3)cc2[nH]1 [nocodazole]
[1]
  cell tension: increased cell tension
[2]; nocodazole
  localization of β5 in FCLs: inhibits the localization of β5 in FCLs
[2]; nocodazole versus DMSO, three independent experiments
  localization of β5 within FAs and FCLs: significant shift in the localization of β5 from FCLs to FAs
[2]; nocodazole, β5-deficient keratinocytes expressing β5-S759/762A
  localization of phospho-inhibitory β5 mutant: neither of their localizations were altered
[2]; nocodazole, β5-deficient keratinocytes expressing β5-S759/762E
  localization of phospho-mimetic β5 mutant: neither of their localizations were altered
